# ChEMBL document CHEMBL1201862, “PubChem BioAssay data set” (2004)
#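 Protocol summary: plate cells (96-well), add compound at 5 concentrations, incubate 48 h, interpolate endpoints linearly. GI50: concentration for 50% inhibition of growth.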 Activity calls are given as the source filed them. No stated cut-off is given here; in the data, active = GI50 up to about 1.1 µM and inactive = higher.
# Experiments:
# Test in all cases: NCI-60 cell line screen, 48 h
# SK-MEL-28 = test system: SK-MEL-28
# RPMI-8226 = test system: RPMI-8226
# SK-MEL-5 = test system: SK-MEL-5
# HOP-92 = test system: HOP-92
# A549 = test system: A549
# NCI-H226 = test system: NCI-H226
# UO-31 = test system: UO-31
# SN12C = test system: SN12C
# TK-10 = test system: TK-10
# SK-OV-3 = test system: SK-OV-3
# UACC-257 = test system: UACC-257
# U-251 = test system: U-251
# M14 = test system: M14
# EKVX = test system: EKVX
# SK-MEL-2 = test system: SK-MEL-2
# HOP-62 = test system: HOP-62
# T47D = test system: T47D
# MCF7 = test system: MCF7
# DU-145 = test system: DU-145
SMILES,GI50 (SK-MEL-28),GI50 (RPMI-8226),GI50 (SK-MEL-5),GI50 (HOP-92),GI50 (A549),GI50 (NCI-H226),GI50 (UO-31),GI50 (SN12C),GI50 (TK-10),GI50 (SK-OV-3),GI50 (UACC-257),GI50 (U-251),GI50 (M14),GI50 (EKVX),GI50 (SK-MEL-2),GI50 (HOP-62),GI50 (T47D),GI50 (MCF7),GI50 (DU-145)
COC(=O)/C(=N\NC(N)=O)C(C(=O)C(=O)Nc1ccccc1C(=O)OC)c1nc2ccc(C(=O)c3ccccc3)cc2nc1O (stereo not drawn),> 100 µM (inactive),> 100 µM (inactive),> 100 µM (inactive),> 100 µM (inactive),> 100 µM (inactive),> 100 µM (inactive),> 100 µM (inactive),> 100 µM (inactive),> 100 µM (inactive),> 100 µM (inactive),> 100 µM (inactive),> 100 µM (inactive),> 100 µM (inactive),> 100 µM (inactive),> 100 µM (inactive),> 100 µM (inactive),,,
CC(C)=C[C@H]1CCC2(OCCO2)[C@]1(C)CO,> 100 µM (inactive),> 100 µM (inactive),> 100 µM (inactive),,> 100 µM (inactive),> 100 µM (inactive),> 100 µM (inactive),> 100 µM (inactive),> 100 µM (inactive),> 100 µM (inactive),> 100 µM (inactive),,> 100 µM (inactive),58.7 µM (inactive),> 100 µM (inactive),,> 100 µM (inactive),> 100 µM (inactive),
CCOC(=O)C(=O)Nc1cccc(Cl)c1C,> 100 µM (inactive),> 100 µM (inactive),> 100 µM (inactive),> 100 µM (inactive),> 100 µM (inactive),> 100 µM (inactive),> 100 µM (inactive),> 100 µM (inactive),> 100 µM (inactive),> 100 µM (inactive),> 100 µM (inactive),> 100 µM (inactive),> 100 µM (inactive),> 100 µM (inactive),> 100 µM (inactive),> 100 µM (inactive),,,
CC(=O)OCC1OC(n2c(-c3ccccc3)c(C(C)=O)c(-c3cccc4ccccc34)c(C#N)c2=S)C(OC(C)=O)C(OC(C)=O)C1OC(C)=O (stereo not drawn),> 100 µM (inactive),,> 100 µM (inactive),,> 100 µM (inactive),> 100 µM (inactive),< 0.01 µM (active),> 100 µM (inactive),> 100 µM (inactive),> 100 µM (inactive),> 100 µM (inactive),> 100 µM (inactive),> 100 µM (inactive),83.6 µM (inactive),> 100 µM (inactive),> 100 µM (inactive),> 100 µM (inactive),> 100 µM (inactive),> 100 µM (inactive)
CC1=COC(=O)c2ccccc2N1,> 100 µM (inactive),> 100 µM (inactive),> 100 µM (inactive),> 100 µM (inactive),> 100 µM (inactive),> 100 µM (inactive),> 100 µM (inactive),> 100 µM (inactive),> 100 µM (inactive),> 100 µM (inactive),,> 100 µM (inactive),> 100 µM (inactive),> 100 µM (inactive),> 100 µM (inactive),> 100 µM (inactive),,,
CCN(CC)CCNC(=O)c1ccccc1NC(=O)C(=O)Nc1ccccc1C(=O)NCCN(CC)CC,45.4 µM (inactive),> 100 µM (inactive),18.8 µM (inactive),31.4 µM (inactive),> 100 µM (inactive),> 100 µM (inactive),> 100 µM (inactive),60.5 µM (inactive),> 100 µM (inactive),> 100 µM (inactive),18.6 µM (inactive),44.6 µM (inactive),19.1 µM (inactive),> 100 µM (inactive),43 µM (inactive),> 100 µM (inactive),,,
O=C(Nc1ccc(C(F)(F)F)cc1[N+](=O)[O-])C(=O)C(C(=O)c1ccc2ccccc2c1)C1OC(=O)c2ccccc21 (stereo not drawn),3.63 µM (inactive),4.11 µM (inactive),6.76 µM (inactive),0.34 µM (active),8.51 µM (inactive),0.681 µM (active),13.8 µM (inactive),12.9 µM (inactive),18.5 µM (inactive),26.5 µM (inactive),10.1 µM (inactive),4.41 µM (inactive),13.6 µM (inactive),3.32 µM (inactive),13 µM (inactive),5.74 µM (inactive),,,
COc1cc2ccc3c4cc(OC)c(OC)cc4c[n+](C)c3c2cc1O,> 100 µM (inactive),> 100 µM (inactive),> 100 µM (inactive),> 100 µM (inactive),> 100 µM (inactive),9.16 µM (inactive),> 100 µM (inactive),2.1 µM (inactive),> 100 µM (inactive),> 100 µM (inactive),> 100 µM (inactive),6.37 µM (inactive),> 100 µM (inactive),> 100 µM (inactive),> 100 µM (inactive),> 92.5 µM (inactive),,,
COS(=O)(=O)OCCC(NC(=O)OCc1ccccc1)C(=O)OCc1ccccc1 (stereo not drawn),> 100 µM (inactive),> 100 µM (inactive),> 100 µM (inactive),> 100 µM (inactive),> 100 µM (inactive),> 100 µM (inactive),> 100 µM (inactive),> 100 µM (inactive),> 100 µM (inactive),> 100 µM (inactive),> 100 µM (inactive),> 100 µM (inactive),> 100 µM (inactive),> 100 µM (inactive),> 100 µM (inactive),> 100 µM (inactive),,,
CCOC(=O)C(NC(=O)C(CCCCNP(=O)(OCC)OCC)NC(=O)C(C)NC(C)=O)C(C)C (stereo not drawn),> 100 µM (inactive),> 100 µM (inactive),> 100 µM (inactive),> 100 µM (inactive),> 100 µM (inactive),> 100 µM (inactive),> 100 µM (inactive),> 100 µM (inactive),> 100 µM (inactive),,> 100 µM (inactive),> 100 µM (inactive),> 100 µM (inactive),> 100 µM (inactive),> 100 µM (inactive),> 100 µM (inactive),,> 100 µM (inactive),> 100 µM (inactive)
CCCCN(CC)C(=O)C(=O)C1C(=O)Nc2ccccc2[S+]1[O-] (stereo not drawn),> 100 µM (inactive),> 100 µM (inactive),> 100 µM (inactive),> 100 µM (inactive),> 100 µM (inactive),> 100 µM (inactive),> 100 µM (inactive),> 100 µM (inactive),> 100 µM (inactive),> 100 µM (inactive),> 100 µM (inactive),> 100 µM (inactive),> 100 µM (inactive),55.6 µM (inactive),> 100 µM (inactive),> 100 µM (inactive),,,
O=C1c2ccccc2C(=O)N1NC1=NCCN1,> 100 µM (inactive),> 100 µM (inactive),> 100 µM (inactive),,> 100 µM (inactive),> 100 µM (inactive),,> 100 µM (inactive),> 100 µM (inactive),> 100 µM (inactive),> 100 µM (inactive),> 100 µM (inactive),> 100 µM (inactive),> 100 µM (inactive),> 100 µM (inactive),> 100 µM (inactive),> 100 µM (inactive),> 100 µM (inactive),> 100 µM (inactive)
